US20080161289A1, “Fused Thiazole Derivatives Having Affinity for the Histamine H3 Receptor” (Glaxo Group Limited, priority 2005, published 2008)

Biological target: T1, histamine H3 receptors (Homo sapiens, UniProt Q9Y5N1)
T1 construct: expressed in transfected cells; host or cells: CHO K1 cells carrying pSwitch, transfected with pGeneH3, induced with mifepristone; clone 3H3; membrane preparation
Assay: Histamine H3 functional antagonist assay ([35S]-GTPγS SPA on membranes from H3 cells)
Format: biochemical
Conditions: hydrochloride salts tested; H3 functional antagonist assay using membrane prepared from cultured H3 cells; averages of a number of experiments; read-out: functional pKi (fpKi) (converted)
Description: A membrane preparation containing histamine H3 receptors may be prepared in accordance with the following procedures:
(i) Generation of Histamine H3 Cell Line
DNA encoding the human histamine H3 gene (Huvar, A. et al. (1999) Mol. Pharmacol. 55(6), 1101-1107) was cloned into a holding vector, pCDNA3.1 TOPO (InVitrogen) and its cDNA was isolated from this vector by restriction digestion of plasmid DNA with the enzymes BamHI and Not-1 and ligated into the inducible expression vector pGene (InVitrogen) digested with the same enzymes. The GeneSwitch™ system (a system where in transgene expression is switched off in the absence of an inducer and switched on in the presence of an inducer) was performed as described in U.S. Pat. Nos. 5,364,791; 5,874,534; and 5,935,934. Ligated DNA was transformed into competent DH5α E. coli host bacterial cells and plated onto Luria Broth (LB) agar containing Zeocin™ (an antibiotic which allows the selection of cells expressing the sh ble gene which is present on pGene and pSwitch) at 50 μg ml^−1. Colonies containing the re-ligated plasmid were identified by restriction analysis. DNA for transfection into mammalian cells was prepared from 250 ml cultures of the host bacterium containing the pGeneH3 plasmid and isolated using a DNA preparation kit (Qiagen Midi-Prep) as per manufacturers guidelines (Qiagen).
CHO K1 cells previously transfected with the pSwitch regulatory plasmid (InVitrogen) were seeded at 2×10e6 cells per T75 flask in Complete Medium, containing Hams F12 (GIBCOBRL, Life Technologies) medium supplemented with 10% v/v dialysed foetal bovine serum, L-glutamine, and hygromycin (100 μg ml^−1), 24 hours prior to use. Plasmid DNA was transfected into the cells using Lipofectamine plus according to the manufacturers guidelines (InVitrogen). 48 hours post transfection cells were placed into complete medium supplemented with 500 μg ml^−1 Zeocin™.
10-14 days post selection 10 nM Mifepristone (InVitrogen), was added to the culture medium to induce the expression of the receptor. 18 hours post induction cells were detached from the flask using ethylenediamine tetra-acetic acid (EDTA; 1:5000; InVitrogen), following several washes with phosphate buffered saline pH 7.4 and resuspended in Sorting Medium containing Minimum Essential Medium (MEM), without phenol red, and supplemented with Earles salts and 3% Foetal Clone II (Hyclone). Approximately 1×10e7 cells were examined for receptor expression by staining with a rabbit polyclonal antibody, 4a, raised against the N-terminal domain of the histamine H3 receptor, incubated on ice for 60 minutes, followed by two washes in sorting medium. Receptor bound antibody was detected by incubation of the cells for 60 minutes on ice with a goat anti rabbit antibody, conjugated with Alexa 488 fluorescence marker (Molecular Probes). Following two further washes with Sorting Medium, cells were filtered through a 50 μm Filcon™ (BD Biosciences) and then analysed on a FACS Vantage SE Flow Cytometer fitted with an Automatic Cell Deposition Unit. Control cells were non-induced cells treated in a similar manner. Positively stained cells were sorted as single cells into 96-well plates, containing Complete Medium containing 500 μg ml^−1 Zeocin™ and allowed to expand before reanalysis for receptor expression via antibody and ligand binding studies. One clone, 3H3, was selected for membrane preparation.
(ii) Membrane Preparation from Cultured Cells
All steps of the protocol are carried out at 4° C. and with pre-cooled reagents. The cell pellet is resuspended in 10 volumes of homogenisation buffer (50 mM N-2-hydroxyethylpiperazine-N′-2-ethanesulfonic acid (HEPES), 1 mM ethylenediamine tetra-acetic acid (EDTA), pH 7.4 with KOH, supplemented with 10e-6M leupeptin (acetyl-leucyl-leucyl-arginal; Sigma L2884), 25 μg/ml bacitracin (Sigma B0125), 1 mM phenylmethylsulfonyl fluoride (PMSF) and 2×10e-6M pepstain A (Sigma)). […]

T1 sequence (Q9Y5N1 whole entry): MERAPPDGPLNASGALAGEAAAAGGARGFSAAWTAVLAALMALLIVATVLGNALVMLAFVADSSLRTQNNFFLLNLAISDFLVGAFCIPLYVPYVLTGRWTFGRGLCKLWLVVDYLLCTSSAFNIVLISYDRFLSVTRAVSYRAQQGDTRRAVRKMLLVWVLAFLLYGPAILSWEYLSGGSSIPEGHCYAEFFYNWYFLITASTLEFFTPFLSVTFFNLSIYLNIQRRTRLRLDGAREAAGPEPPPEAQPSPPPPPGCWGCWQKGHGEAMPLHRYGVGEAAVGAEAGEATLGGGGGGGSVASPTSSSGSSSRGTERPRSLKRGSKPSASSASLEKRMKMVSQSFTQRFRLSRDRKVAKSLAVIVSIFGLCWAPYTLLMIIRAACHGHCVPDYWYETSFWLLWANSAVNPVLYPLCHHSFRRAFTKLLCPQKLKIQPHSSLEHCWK

| Compound | Ki [nM] |
| --- | --- |
| Cc1cn(C)nc1C(=O)N1CCC(c2nc3c(s2)CCN(C2CCC2)CC3)CC1 [Example E85, 6-Cyclobutyl-2-{1-[(1,4-dimethyl-1H-pyrazol-3-yl)carbonyl]-4-piperidinyl}-5,6,7,8-tetrahydro-4H-[1,3]thiazolo[4,5-d]azepine] | < 1.26 |
| Cc1cc(C(=O)N2CCC(c3nc4c(s3)CCN(C3CCC3)CC4)CC2)nn1C [Example E88, 6-Cyclobutyl-2-{1-[(1,5-dimethyl-1H-pyrazol-3-yl)carbonyl]-4-piperidinyl}-5,6,7,8-tetrahydro-4H-[1,3]thiazolo[4,5-d]azepine] | < 1.26 |
| O=C(c1ccccn1)N1CCC(c2nc3c(s2)CCN(C2CCC2)CC3)CC1 [Example E90, 6-Cyclobutyl-2-[1-(2-pyridinylcarbonyl)-4-piperidinyl]-5,6,7,8-tetrahydro-4H-[1,3]thiazolo[4,5-d]azepine] | < 1.26 |
| Cc1cncc(C(=O)N2CCC(c3nc4c(s3)CCN(C3CCC3)CC4)CC2)n1 [Example E92, 6-Cyclobutyl-2-{1-[(6-methyl-2-pyrazinyl)carbonyl]-4-piperidinyl}-5,6,7,8-tetrahydro-4H-[1,3]thiazolo[4,5-d]azepine] | < 1.26 |
| Cc1cc(C(=O)N2CCC(c3nc4c(s3)CCN(C3CCC3)CC4)CC2)ccn1 [Example E93, 6-Cyclobutyl-2-{1-[(2-methyl-4-pyridinyl)carbonyl]-4-piperidinyl}-5,6,7,8-tetrahydro-4H-[1,3]thiazolo[4,5-d]azepine] | < 1.26 |
| Cc1nccc(C(=O)N2CCC(c3nc4c(s3)CCN(C3CCC3)CC4)CC2)n1 [Example E95, 6-Cyclobutyl-2-{1-[(2-methyl-4-pyrimidinyl)carbonyl]-4-piperidinyl}-5,6,7,8-tetrahydro-4H-[1,3]thiazolo[4,5-d]azepine] | < 1.26 |
| O=S1(=O)CCCN1c1ccc(-c2nc3c(s2)CCN(C2CCC2)CC3)cc1 [Example E99, 6-Cyclobutyl-2-[4-(1,1-dioxido-2-isothiazolidinyl)phenyl]-5,6,7,8-tetrahydro-4H-[1,3]thiazolo[4,5-d]azepine] | < 1.26 |
| NC(=O)c1ccc(-c2nc3c(s2)CCN(C2CCC2)CC3)cn1 [Example E100, 5-(6-Cyclobutyl-5,6,7,8-tetrahydro-4H-[1,3]thiazolo[4,5-d]azepin-2-yl)-2-pyridinecarboxamide] | < 1.26 |
| O=C1NCCN1c1ccc(-c2nc3c(s2)CCN(C2CCC2)CC3)cn1 [Example E103, 1-[5-(6-Cyclobutyl-5,6,7,8-tetrahydro-4H-[1,3]thiazolo[4,5-d]azepin-2-yl)-2-pyridinyl]-2-imidazolidinone] | < 1.26 |
| N#Cc1ccc(C(=O)N2CCC(c3nc4c(s3)CCN(C3CCC3)CC4)C2)cc1 (stereo not drawn) [Example E105, 4-{[3-(6-Cyclobutyl-5,6,7,8-tetrahydro-4H-[1,3]thiazolo[4,5-d]azepin-2-yl)-1-pyrrolidinyl]carbonyl}benzonitrile] | < 1.26 |
| Cc1cccc(C(=O)N2CCC(c3nc4c(s3)CCN(C3CCC3)CC4)C2)n1 (stereo not drawn) [Example E106, 6-Cyclobutyl-2-{1-[(6-methyl-2-pyridinyl)carbonyl]-3-pyrrolidinyl}-5,6,7,8-tetrahydro-4H-[1,3]thiazolo[4,5-d]azepine] | < 31.6 |
| c1cc(N2CCCC2)ncc1-c1nc2c(s1)CCN(C1CCC1)CC2 [Example E107, 6-Cyclobutyl-2-[6-(1-pyrrolidinyl)-3-pyridinyl]-5,6,7,8-tetrahydro-4H-[1,3]thiazolo[4,5-d]azepine] | > 7.94 |
| c1cc(N2CCOCC2)ncc1-c1nc2c(s1)CCN(C1CCC1)CC2 [Example E108, 6-Cyclobutyl-2-[6-(4-morpholinyl)-3-pyridinyl]-5,6,7,8-tetrahydro-4H-[1,3]thiazolo[4,5-d]azepine] | < 1.26 |
| N#Cc1cccc(-c2nc3c(s2)CCN(C2CCC2)CC3)c1 [Example E112, 3-(6-Cyclobutyl-5,6,7,8-tetrahydro-4H-[1,3]thiazolo[4,5-d]azepin-2-yl)benzonitrile] | < 31.6 |
| CN(C)c1ccc(-c2nc3c(s2)CCN(C2CCC2)CC3)cc1 [Example E116, 4-(6-Cyclobutyl-5,6,7,8-tetrahydro-4H-[1,3]thiazolo[4,5-d]azepin-2-yl)-N,N-dimethylaniline] | < 1.26 |
